Data on 18 substances can be found in patent US8987194B2, “Mutant Nisin ser 29 derivatives and the use thereof” (priority 2009, dated 2015).

For assay [1] the following is noted: literature reports; cited from earlier work.
The subject of assay [2] is Gram-positive pathogens including Listeria monocytogenes and/or Staphylococcus aureus. As to conditions: cited from earlier work.
Another assay has as its system gram-negative. As to conditions: introduction of positively charged residues; cited from earlier work.
Another assay relates to pore formation. As to conditions: cited from earlier work.
Assay [3] has as its system penicillin-susceptible strain of Strep. pneumoniae. As to conditions: cited from earlier work.
Assay [4] concerns L. lactis HP. As to the kind of experiment: Agarose-based diffusion assay of Nisin A S29 supernatants. As to conditions: for Measurement of inhibitory zone, Average a + b + c: average of three replicates; for Measurement of inhibitory zone, L. lactis HP (a): replicate a; for Measurement of inhibitory zone, L. lactis HP (b): replicate b; for Measurement of inhibitory zone, L. lactis HP (c): replicate c. It counts as cell-based, L. lactis spp cremoris. As for the experimental part:
The Nisin A S29 derivatives were retested using this assay (See FIG. 1).
The modified agarose-based assay was performed against 2 indicator strains, L. lactis spp cremoris HP (Table. 6) and Listeria monocytogenes LO28 (Table. 7).

The test system of assay [5] is L. lactis HP. Briefly: Deferred antagonism assay (agar overlay). It counts as cell-based, Lactococcus lactis spp cremoris. As to conditions: in Table 2 a listed strain = enhanced. As to the method:
(§1) Deferred antagonism assays were performed by replicating strains on GM17 agar plates and allowing them to grow overnight before overlaying with either GM17/BHI/TSB-YE/MH agar (0.75% w/v agar) seeded with the appropriate indicator strain. For higher throughput screening of the S29X bank, deferred antagonism assays were performed by replicating strains using a 96 pin replicator (Boekel) or spotting 5 μl of a fresh overnight culture on GM17 agar plates and allowing them to grow overnight. Following overnight growth the strains were subjected to UV radiation for 30 minutes prior to overlaying with either GM17/BHI/TS/MH agar (0.75% w/v agar) seeded with the appropriate indicator

The test system of another assay is S. aureus RF122. Briefly: Deferred antagonism assay (agar overlay). The assay is classed as cell-based, Staphylococcus aureus. As to conditions: in Table 2 a listed strain = enhanced. As for the experimental part: as §1

Read-outs that look alike come from different tables or passages of the source. Where no end group is shown, it is not given here.

Consider “I1W: aromatic residue-containing form of Nisin, literature (WTSISLCTPGCKTGALMGCNMKTATCHCSIHVSK; UniProt P13068 24-57, looked up, variant I1W)”, for which the “antimicrobial activity of bioengineered derivative relative to Nisin” value in assay [1] is “reduced antimicrobial activity”.

As to “I30W: aromatic residue-containing form of Nisin, literature (ITSISLCTPGCKTGALMGCNMKTATCHCSWHVSK; UniProt P13068 24-57, looked up, variant I30W)”, the “antimicrobial activity of bioengineered derivative relative to Nisin” value in assay [1] is on record as “reduced antimicrobial activity”.

Take “K22E (ITSISLCTPGCKTGALMGCNMETATCHCSIHVSK; UniProt P13068 24-57, looked up, variant K22E)”: the “antimicrobial activity of bioengineered derivative relative to Nisin” value in assay [1] was “detrimental impact”.

For “K22S: Nisin hinge region derivative (Field et al., 2008) (ITSISLCTPGCKTGALMGCNMSTATCHCSIHVSK; cysteine pairing not given here; also: lantibiotic nisin-A post-translational modifications, not placed; UniProt P13068 24-57, looked up, variant K22S)”, the “bioactivity and specific activity against Gram-positive pathogens” value in assay [2] was “enhanced bioactivity and specific activity”.

In the case of “M21E (ITSISLCTPGCKTGALMGCNEKTATCHCSIHVSK; UniProt P13068 24-57, looked up, variant M21E)”, the “antimicrobial activity of bioengineered derivative relative to Nisin” value in assay [1] is listed as “detrimental impact”.

Turning to “M21K (ITSISLCTPGCKTGALMGCNKKTATCHCSIHVSK; UniProt P13068 24-57, looked up, variant M21K)”, the “outcome with respect to anti-gram-negative activity” value in the assay with gram-negative is “more beneficial outcome”.

Take “N20F: aromatic residue-containing form of Nisin, literature (ITSISLCTPGCKTGALMGCFMKTATCHCSIHVSK; UniProt P13068 24-57, looked up, variant N20F)”: in assay [1], the “antimicrobial activity of bioengineered derivative relative to Nisin” value is “reduced antimicrobial activity”.

Take “N20P/M21P: Nisin peptide with proline incorporation, literature (ITSISLCTPGCKTGALMGCPPKTATCHCSIHVSK; cysteine pairing not given here; also: lantibiotic nisin-A post-translational modifications, not placed; UniProt P13068 24-57, looked up, variant N20P M21P)”: the pore formation result in the assay with pore formation is listed as “incapable of pore formation”.

Regarding “N20P: Nisin hinge region derivative (Field et al., 2008) (ITSISLCTPGCKTGALMGCPMKTATCHCSIHVSK; cysteine pairing not given here; also: lantibiotic nisin-A post-translational modifications, not placed; UniProt P13068 24-57, looked up, variant N20P)”, in assay [2], the “bioactivity and specific activity against Gram-positive pathogens” value is “enhanced bioactivity and specific activity”.

On to Nisin, for which the “minimum inhibitory concentration (MIC)” value in assay [3] (before serial exposure to Nisin (1 mg/L)) is 0.4 µg/mL; in assay [3] (stable Nisin-resistant mutants after serial exposure to Nisin (1 mg/L)), 6.4 µg/mL.

As to “Nisin A S29F: Nisin A derivative with F at position 29 (ITSISLCTPGCKTGALMGCNMKTATCHCFIHVSK; cysteine pairing not given here; also: lantibiotic nisin-A post-translational modifications, not placed; UniProt P13068 24-57, looked up, variant S29F)”, in the assay on L. lactis HP [4], the “Measurement of inhibitory zone, Average a + b + c” value was 11.0 mm; the “Measurement of inhibitory zone, L. lactis HP (a)” value was found to be 10.6 mm; the “Measurement of inhibitory zone, L. lactis HP (b)” value is on record as 12.2 mm; the “Measurement of inhibitory zone, L. lactis HP (c)” value turned out to be 10.2 mm.

Consider “Nisin A S29H: Nisin A derivative with H at position 29 (ITSISLCTPGCKTGALMGCNMKTATCHCHIHVSK; cysteine pairing not given here; also: lantibiotic nisin-A post-translational modifications, not placed; UniProt P13068 24-57, looked up, variant S29H)”, for which, in the assay on L. lactis HP [4], the “Measurement of inhibitory zone, Average a + b + c” value was determined as 10.93 mm; the “Measurement of inhibitory zone, L. lactis HP (a)” value is 11.2 mm; the “Measurement of inhibitory zone, L. lactis HP (b)” value is recorded as 10.7 mm; the “Measurement of inhibitory zone, L. lactis HP (c)” value is 10.9 mm.

With “Nisin A S29I: Nisin A derivative with I at position 29 (ITSISLCTPGCKTGALMGCNMKTATCHCIIHVSK; cysteine pairing not given here; also: lantibiotic nisin-A post-translational modifications, not placed; UniProt P13068 24-57, looked up, variant S29I)”, in the assay on L. lactis HP [4], the “Measurement of inhibitory zone, Average a + b + c” value was determined as 9.9 mm; the “Measurement of inhibitory zone, L. lactis HP (a)” value is recorded as 9.2 mm; the “Measurement of inhibitory zone, L. lactis HP (b)” value is 11.3 mm; the “Measurement of inhibitory zone, L. lactis HP (c)” value came to 9.2 mm.

Take “Nisin A S29L: Nisin A derivative with L at position 29 (ITSISLCTPGCKTGALMGCNMKTATCHCLIHVSK; cysteine pairing not given here; also: lantibiotic nisin-A post-translational modifications, not placed; UniProt P13068 24-57, looked up, variant S29L)”: in the assay on L. lactis HP [4], the “Measurement of inhibitory zone, Average a + b + c” value stood at 12.76 mm; the “Measurement of inhibitory zone, L. lactis HP (a)” value is 12.6 mm; the “Measurement of inhibitory zone, L. lactis HP (b)” value is given as 13.5 mm; the “Measurement of inhibitory zone, L. lactis HP (c)” value is 12.2 mm.

Take “Nisin A S29M: Nisin A derivative with M at position 29 (ITSISLCTPGCKTGALMGCNMKTATCHCMIHVSK; cysteine pairing not given here; also: lantibiotic nisin-A post-translational modifications, not placed; UniProt P13068 24-57, looked up, variant S29M)”: in the assay on L. lactis HP [4], the “Measurement of inhibitory zone, Average a + b + c” value worked out at 13.56 mm; the “Measurement of inhibitory zone, L. lactis HP (a)” value turned out to be 13.2 mm; the “Measurement of inhibitory zone, L. lactis HP (b)” value is listed as 14.5 mm; the “Measurement of inhibitory zone, L. lactis HP (c)” value was 13.0 mm.

Take “Nisin A S29Q: Nisin A derivative with Q at position 29 (ITSISLCTPGCKTGALMGCNMKTATCHCQIHVSK; cysteine pairing not given here; also: lantibiotic nisin-A post-translational modifications, not placed; UniProt P13068 24-57, looked up, variant S29Q)”: in the assay on L. lactis HP [4], the “Measurement of inhibitory zone, Average a + b + c” value amounted to 15.30 mm; the “Measurement of inhibitory zone, L. lactis HP (a)” value is 15.3 mm; the “Measurement of inhibitory zone, L. lactis HP (b)” value is given as 15.2 mm; the “Measurement of inhibitory zone, L. lactis HP (c)” value is listed as 15.4 mm.

For the substance Nisin F, the “bioactivity compared to wild type (natural) Nisin variant” value in the assay on L. lactis HP [5] is “Nisin A<Nisin F”.

For Nisin Z, in the assay on S. aureus RF122, the “bioactivity compared to wild type (natural) Nisin variant” value was “Nisin A<Nisin Z”.
